{
  "source": "ChEMBL document CHEMBL1157004",
  "about": "(Bioorg Med Chem, 2009)",
  "key": {"Rattus norvegicus [1]": {"system": "Rattus norvegicus", "assay": "Cholinergic toxicity in po dosed Wistar rat assessed as occurrence of defecation after 1 week", "assay_type": "organism-based", "settings": "in vivo, 168 h"}, "Rattus norvegicus [2]": {"system": "Rattus norvegicus", "assay": "Antiamnesic activity against scopolamine-induced dementia in Wistar rat assessed as basal latency period to reach shock free zone at 0.5 mg/kg, po", "assay_type": "functional"}, "Rattus norvegicus [3]": {"system": "Rattus norvegicus", "assay": "Cholinergic toxicity in po dosed Wistar rat assessed as occurrence of salivation after 1 week", "assay_type": "organism-based", "settings": "in vivo, 168 h"}, "Rattus norvegicus [4]": {"system": "Rattus norvegicus", "assay": "Antiamnesic activity against scopolamine-induced memory loss and learning impairment in Wistar rat assessed as transfer latency period to reach from open arm to closed arm ends measured on day 2 at 0.5 mg/kg, po by elevated plus maze test", "assay_type": "functional"}, "Rattus norvegicus [5]": {"system": "Rattus norvegicus", "assay": "Toxicity in po dosed Wistar rat assessed as mortality within 1 week", "assay_type": "organism-based", "settings": "in vivo, 168 h"}, "Rattus norvegicus [6]": {"system": "Rattus norvegicus", "assay": "Antiamnesic activity against scopolamine-induced dementia in Wistar rat assessed as latency period to improve memory at 0.5 mg/kg, po", "assay_type": "functional"}, "Rattus norvegicus [7]": {"system": "Rattus norvegicus", "assay": "Antiamnesic activity against scopolamine-induced memory loss and learning impairment in Wistar rat assessed as transfer latency period to reach from open arm to closed arm ends measured on day 1 at 0.5 mg/kg, po by elevated plus maze test", "assay_type": "functional"}, "Rattus norvegicus [8]": {"system": "Rattus norvegicus", "assay": "Antiamnesic activity against scopolamine-induced dementia in Wistar rat assessed as decrease in occurrence of mistakes at 0.5 mg/kg, po", "assay_type": "functional, organism-based", "set-up": "dose 0.5 mg/kg"}, "Rattus norvegicus [9]": {"system": "Rattus norvegicus", "assay": "Antiamnesic activity against scopolamine-induced memory loss and learning impairment in Wistar rat at 0.5 mg/kg, po by Y maze test", "assay_type": "functional, organism-based", "set-up": "dose 0.5 mg/kg"}, "[10]": {"target": "T1, Muscarinic acetylcholine receptor M1 (Rattus norvegicus) (UniProt P08482)", "T1 sequence (whole entry)": "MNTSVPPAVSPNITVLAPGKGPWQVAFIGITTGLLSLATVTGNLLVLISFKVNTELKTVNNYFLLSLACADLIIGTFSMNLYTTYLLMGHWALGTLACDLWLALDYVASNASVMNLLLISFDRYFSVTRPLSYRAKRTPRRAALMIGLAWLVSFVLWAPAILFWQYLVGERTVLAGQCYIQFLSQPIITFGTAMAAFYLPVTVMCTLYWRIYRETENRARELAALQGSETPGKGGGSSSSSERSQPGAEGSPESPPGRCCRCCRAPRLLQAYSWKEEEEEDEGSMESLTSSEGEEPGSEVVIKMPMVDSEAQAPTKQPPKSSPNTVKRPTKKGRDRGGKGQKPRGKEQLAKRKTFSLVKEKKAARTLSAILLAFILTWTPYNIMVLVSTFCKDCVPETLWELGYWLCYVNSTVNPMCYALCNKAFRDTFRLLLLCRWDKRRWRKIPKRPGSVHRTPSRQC", "assay": "Agonist activity at muscarinic M1 receptor in Wistar rat cerebral cortex assessed as [3H]myoinositol (1,4,5)-triphosphate level per gram of protein at 100 uM after 1 hr by liquid scintillation counting", "assay_type": "functional, tissue-based"}, "[11]": {"target": "T2, Muscarinic acetylcholine receptor M1 (Rattus norvegicus, UniProt P08482)", "T2 sequence (P08482 whole entry)": "T1 sequence (whole entry)", "assay": "Displacement of [3H]QNB from muscarinic M1 receptor in Wistar rat brain cortex after 2 hrs by liquid scintillation counting"}},
  "note": "Active and inactive are the calls of the source. No cut-off for these calls is given here.",
  "data": [
    {"smiles": "CN1CCC=C(C2CN(C(=O)c3ccc([N+](=O)[O-])cc3)CCO2)C1", "note": "(stereo unspecified)", "values": [
      {"measurement": "Activity", "setting": "Rattus norvegicus [1]", "result": "Non-toxic"},
      {"measurement": "Time", "setting": "Rattus norvegicus [2]", "result": 10, "unit": "s"},
      {"measurement": "Activity", "setting": "Rattus norvegicus [3]", "result": "Non-toxic"},
      {"measurement": "Time", "setting": "Rattus norvegicus [4]", "result": 52, "unit": "s"},
      {"measurement": "Activity", "setting": "Rattus norvegicus [5]", "result": "Non-toxic"},
      {"measurement": "Time", "setting": "Rattus norvegicus [6]", "result": 5, "unit": "s"},
      {"measurement": "Time", "setting": "Rattus norvegicus [7]", "result": 64, "unit": "s"},
      {"measurement": "Activity", "setting": "Rattus norvegicus [8]", "result": "Active"},
      {"measurement": "Activity", "setting": "Rattus norvegicus [9]", "result": "Active"}
    ]},
    {"smiles": "CN1CCC=C(C2CN(C(=O)c3cc(Cl)ccc3Cl)CCO2)C1", "note": "(stereo unspecified)", "values": [
      {"measurement": "Activity", "setting": "Rattus norvegicus [1]", "result": "Non-toxic"},
      {"measurement": "Time", "setting": "Rattus norvegicus [2]", "result": 11, "unit": "s"},
      {"measurement": "Activity", "setting": "Rattus norvegicus [3]", "result": "Non-toxic"},
      {"measurement": "Time", "setting": "Rattus norvegicus [4]", "result": 53, "unit": "s"},
      {"measurement": "Activity", "setting": "Rattus norvegicus [5]", "result": "Non-toxic"},
      {"measurement": "Time", "setting": "Rattus norvegicus [6]", "result": 9, "unit": "s"},
      {"measurement": "Time", "setting": "Rattus norvegicus [7]", "result": 66, "unit": "s"},
      {"measurement": "Activity", "setting": "Rattus norvegicus [8]", "result": "Active"},
      {"measurement": "Activity", "setting": "Rattus norvegicus [9]", "result": "Active"}
    ]},
    {"smiles": "CN1CCC=C(C2CN(C(=O)c3ccc(Cl)cc3)CCO2)C1", "note": "(stereo unspecified)", "values": [
      {"measurement": "Activity", "setting": "Rattus norvegicus [1]", "result": "Non-toxic"},
      {"measurement": "Time", "setting": "Rattus norvegicus [2]", "result": 7, "unit": "s"},
      {"measurement": "Activity", "setting": "Rattus norvegicus [3]", "result": "Non-toxic"},
      {"measurement": "Time", "setting": "Rattus norvegicus [4]", "result": 17, "unit": "s"},
      {"measurement": "Activity", "setting": "Rattus norvegicus [5]", "result": "Non-toxic"},
      {"measurement": "Time", "setting": "Rattus norvegicus [6]", "result": 3, "unit": "s"},
      {"measurement": "Time", "setting": "Rattus norvegicus [7]", "result": 37, "unit": "s"},
      {"measurement": "Activity", "setting": "Rattus norvegicus [8]", "result": "Active"},
      {"measurement": "Activity", "setting": "Rattus norvegicus [9]", "result": "Active"}
    ]},
    {"smiles": "CN1CCC=C(C2CN(C(=O)c3cccc([N+](=O)[O-])c3)CCO2)C1", "note": "(stereo unspecified)", "values": [
      {"measurement": "Activity", "setting": "Rattus norvegicus [1]", "result": "Non-toxic"},
      {"measurement": "Time", "setting": "Rattus norvegicus [2]", "result": 10, "unit": "s"},
      {"measurement": "Activity", "setting": "Rattus norvegicus [3]", "result": "Non-toxic"},
      {"measurement": "Time", "setting": "Rattus norvegicus [4]", "result": 47, "unit": "s"},
      {"measurement": "Activity", "setting": "Rattus norvegicus [5]", "result": "Non-toxic"},
      {"measurement": "Time", "setting": "Rattus norvegicus [6]", "result": 4, "unit": "s"},
      {"measurement": "Time", "setting": "Rattus norvegicus [7]", "result": 64, "unit": "s"},
      {"measurement": "Activity", "setting": "Rattus norvegicus [8]", "result": "Active"},
      {"measurement": "Activity", "setting": "Rattus norvegicus [9]", "result": "Active"}
    ]},
    {"smiles": "CN1CCC=C(C2CN(C(=O)c3ccccc3[N+](=O)[O-])CCO2)C1", "note": "(stereo unspecified)", "values": [
      {"measurement": "Activity", "setting": "Rattus norvegicus [1]", "result": "Non-toxic"},
      {"measurement": "Time", "setting": "Rattus norvegicus [2]", "result": 10, "unit": "s"},
      {"measurement": "Activity", "setting": "Rattus norvegicus [3]", "result": "Non-toxic"},
      {"measurement": "Time", "setting": "Rattus norvegicus [4]", "result": 52, "unit": "s"},
      {"measurement": "Activity", "setting": "Rattus norvegicus [5]", "result": "Non-toxic"},
      {"measurement": "Time", "setting": "Rattus norvegicus [6]", "result": 5, "unit": "s"},
      {"measurement": "Time", "setting": "Rattus norvegicus [7]", "result": 66, "unit": "s"},
      {"measurement": "Activity", "setting": "Rattus norvegicus [8]", "result": "Active"},
      {"measurement": "Activity", "setting": "Rattus norvegicus [9]", "result": "Active"},
      {"measurement": "Activity", "setting": "[10]", "result": 0.65, "unit": "pmol"},
      {"measurement": "IC50", "setting": "[11]", "result": 618, "unit": "µM"},
      {"measurement": "Ki", "setting": "[11]", "result": 126, "unit": "µM"}
    ]},
    {"smiles": "Cc1ccc(C(=O)N2CCOC(C3=CCCN(C)C3)C2)cc1", "note": "(stereo unspecified)", "values": [
      {"measurement": "Activity", "setting": "Rattus norvegicus [1]", "result": "Non-toxic"},
      {"measurement": "Time", "setting": "Rattus norvegicus [2]", "result": 8, "unit": "s"},
      {"measurement": "Activity", "setting": "Rattus norvegicus [3]", "result": "Non-toxic"},
      {"measurement": "Time", "setting": "Rattus norvegicus [4]", "result": 13, "unit": "s"},
      {"measurement": "Activity", "setting": "Rattus norvegicus [5]", "result": "Non-toxic"},
      {"measurement": "Time", "setting": "Rattus norvegicus [6]", "result": 4, "unit": "s"},
      {"measurement": "Time", "setting": "Rattus norvegicus [7]", "result": 33, "unit": "s"},
      {"measurement": "Activity", "setting": "Rattus norvegicus [8]", "result": "Active"},
      {"measurement": "Activity", "setting": "Rattus norvegicus [9]", "result": "Active"}
    ]},
    {"smiles": "CN1CCC=C(C2CN(C(=O)c3ccc(C(C)(C)C)cc3)CCO2)C1", "note": "(stereo unspecified)", "values": [
      {"measurement": "Activity", "setting": "Rattus norvegicus [1]", "result": "Non-toxic"},
      {"measurement": "Time", "setting": "Rattus norvegicus [2]", "result": 11, "unit": "s"},
      {"measurement": "Activity", "setting": "Rattus norvegicus [3]", "result": "Non-toxic"},
      {"measurement": "Time", "setting": "Rattus norvegicus [4]", "result": 53, "unit": "s"},
      {"measurement": "Activity", "setting": "Rattus norvegicus [5]", "result": "Non-toxic"},
      {"measurement": "Time", "setting": "Rattus norvegicus [6]", "result": 6, "unit": "s"},
      {"measurement": "Time", "setting": "Rattus norvegicus [7]", "result": 65, "unit": "s"},
      {"measurement": "Activity", "setting": "Rattus norvegicus [8]", "result": "Active"},
      {"measurement": "Activity", "setting": "Rattus norvegicus [9]", "result": "Active"}
    ]},
    {"smiles": "COC(=O)C1=CCCN(C)C1", "note": "[ARECOLINE]", "values": [
      {"measurement": "Time", "setting": "Rattus norvegicus [2]", "result": 10, "unit": "s"},
      {"measurement": "Time", "setting": "Rattus norvegicus [4]", "result": 36, "unit": "s"},
      {"measurement": "Activity", "setting": "Rattus norvegicus [5]", "result": "Non-toxic"},
      {"measurement": "Time", "setting": "Rattus norvegicus [6]", "result": 5, "unit": "s"},
      {"measurement": "Time", "setting": "Rattus norvegicus [7]", "result": 52, "unit": "s"},
      {"measurement": "Activity", "setting": "Rattus norvegicus [9]", "result": "Active"}
    ]},
    {"smiles": "CN1CCC=C(C2CN(C(=O)c3ccccc3)CCO2)C1", "note": "(stereo unspecified)", "values": [
      {"measurement": "Activity", "setting": "Rattus norvegicus [1]", "result": "Non-toxic"},
      {"measurement": "Time", "setting": "Rattus norvegicus [2]", "result": 10, "unit": "s"},
      {"measurement": "Activity", "setting": "Rattus norvegicus [3]", "result": "Non-toxic"},
      {"measurement": "Time", "setting": "Rattus norvegicus [4]", "result": 35, "unit": "s"},
      {"measurement": "Activity", "setting": "Rattus norvegicus [5]", "result": "Non-toxic"},
      {"measurement": "Time", "setting": "Rattus norvegicus [6]", "result": 6, "unit": "s"},
      {"measurement": "Time", "setting": "Rattus norvegicus [7]", "result": 53, "unit": "s"},
      {"measurement": "Activity", "setting": "Rattus norvegicus [8]", "result": "Active"},
      {"measurement": "Activity", "setting": "Rattus norvegicus [9]", "result": "Active"}
    ]}
  ]
}
